# “Also recorded” adds a separate entry of the source.
# What was measured:
# [1] = tested on: LTB4 produced by ionomycin-activated neutrophils; experiment: LTB4 production in ionomycin-activated whole blood/neutrophils ex vivo, DG-031 placebo-controlled crossover clinical trial; parameters: species or system human
# Description: (§1) In the short term study, changes in levels of biomarkers that are associated with risk of MI were scored as evidence of changes in the risk of MI.
# (§2) Patients (191 subjects) who met the study eligebility criteria were enrolled and randomized into 3 different dose-level groups: (1) 64 patients on 250 mg/day therapy with DG-031 (250 mg q.d.), vs placebo; (2) 64 patients on 500 mg/day therapy with DG-031 (250 mg b.i.d.) vs placebo; and (3) 63 patients on 750 mg/day therapy with DG-031 (250 mg t.i.d.) vs placebo. […] All patients received 3 tablets per day. Treatment periods, 4 weeks in duration each, were separated by a 2-week washout period. The placebo tablets were identical in shape, color, form and taste to the active tablets except that they contained no active drug ingredients. Treatment with DG-031 or placebo was in addition to the subject's standard care, including all medications and treatment plan as prescribed by the subject's cardiologist prior to enrollment. Due to early termination of 19 subjects (primarily related to unavailability due to travel), 11 were replaced prior to enrollment closure. Thus, a total of 191 subjects were enrolled, with 172 completing all 8 visits or 8 patients (4.4%) short of target.
# All data were analyzed according to a pre-established analysis plan and by intention-to-treat. Hypotheses were tested at a two-sided nominal significance level of 0.05. Each arm of the study, as well as pooled sets (combining dose levels), was considered for the primary analysis. Each such set is a standard AB/BA cross-over design and in the primary analysis of efficacy, the levels of biomarkers of MI risk at the end of the treatment periods (visits 4 and 7) were used as primary response variables. The difference between DG-031 and placebo treatment was the primary outcome, assessed separately for each of the biomarkers. […]
# (§3) Apart from measurements in plasma, LTB4 and MPO were also measured in whole blood preparations ex vivo following ionomycin-activation of leukocytes, using ELISA and mass spectrometry. […]
# [2] = tested on: myeloperoxidase (MPO) in whole blood; experiment: MPO production in ionomycin-activated whole blood ex vivo, DG-031 crossover clinical trial; parameters: species or system human
# Description: as §1
# as §2, with “Due to early termination of 19 subjects (primarily related to unavailability due to travel), 11 were replaced prior to enrollment closure. Thus, a total of 191 subjects were enrolled, with 172 completing all 8 visits or 8 patients (4.4%) short of target.” left out
# (§4) All data were analyzed according to a pre-established analysis plan and by intention-to-treat. […] The difference between DG-031 and placebo treatment was the primary outcome, assessed separately for each of the biomarkers. […]
# as §3
# [3] = tested on: urinary leukotriene E4; experiment: Urine LTE4, DG-031 crossover clinical trial; assay type: in vivo, human; conditions: highest dosage of DG-031 (750 mg/day); nominal p=0.00002
# Description: as §1
# (§5) Patients (191 subjects) who met the study eligebility criteria were enrolled and randomized into 3 different dose-level groups: (1) 64 patients on 250 mg/day therapy with DG-031 (250 mg q.d.), vs placebo; (2) 64 patients on 500 mg/day therapy with DG-031 (250 mg b.i.d.) vs placebo; and (3) 63 patients on 750 mg/day therapy with DG-031 (250 mg t.i.d.) vs placebo. […] All patients received 3 tablets per day. Treatment periods, 4 weeks in duration each, were separated by a 2-week washout period. […]
# as §4
# (§6) Apart from measurements in plasma, LTB4 and MPO were also measured in whole blood preparations ex vivo following ionomycin-activation of leukocytes, using ELISA and mass spectrometry. […] On the log scale the adjustment was based on a linear model, with coefficients determined empirically at time of blind review. Several tertiary markers were also measured including: IL-6, IL-12p40, TNFα, MMP-9, sICAM, sVCAM, P-selectin, E-selectin, MCP-1 and oxidised LDL.
# [4] = tested on: C-reactive protein (CRP); experiment: Serum CRP, DG-031 crossover clinical trial incl. carry-over test; assay type: in vivo, human
# Description: as §1, §2
# All data were analyzed according to a pre-established analysis plan and by intention-to-treat. Hypotheses were tested at a two-sided nominal significance level of 0.05. Each arm of the study, as well as pooled sets (combining dose levels), was considered for the primary analysis. Each such set is a standard AB/BA cross-over design and in the primary analysis of efficacy, the levels of biomarkers of MI risk at the end of the treatment periods (visits 4 and 7) were used as primary response variables. The difference between DG-031 and placebo treatment was the primary outcome, assessed separately for each of the biomarkers. Treatment effect was tested using a two-sample t-test on the period differences for suitably transformed response variables, under an assumption of normality of the transformed data. We report treatment effect as one half of the observed mean differences in the two-sample t-test, with a 95% CI. No pre-tests for carry-over effect were performed as a part of the primary analysis. Tests for carry-over were done and are reported separately from results of primary analysis. As was prespecified for the primary analysis, a simple Bonferroni-adjustment based on 10 biomarkers for the primary objective for the pooled set of the two highest doses, was used to report the outcome of the primary objective. All p-values reported are nominal.
# To cancel out potential seasonal effects, carry-over effects were also studied with two-sample t-tests that compare measurements of the AB (drug/placebo) group with the measurements of the BA (placebo/drug) group. To estimate the effect of the drug at visit 3 for the AB group, (v3−v2), with v3 and v2 denoting, respectively, measurements at visit 3 and visit 2, was used. Similarly (v4−v2) and (v5−v2) were used to estimate effects at visits 4 and 5. For estimating the effect at visit 6, [(v6−v2)+(v3−v2)] was used. Note that v6 from the BA group includes the drug effect after two weeks which cancels the drug effect at visit 3 from the AB group. Similarly, [(v7−v2)+(v4−v2)] was used to estimate the effect at visit 7. […]
# as §3
# [5] = tested on: serum amyloid A; experiment: Serum amyloid A (SAA), DG-031 crossover clinical trial incl. carry-over test; assay type: in vivo, human
# Description: as §1
# as §2, with “Due to early termination of 19 subjects (primarily related to unavailability due to travel), 11 were replaced prior to enrollment closure. Thus, a total of 191 subjects were enrolled, with 172 completing all 8 visits or 8 patients (4.4%) short of target.” left out
# as §4, §3
# [6] = tested on: Lp-PLA2; experiment: Lp-PLA2, DG-031 crossover clinical trial; assay type: in vivo, human
# Description: as §1, §5, §4, §6
# [7] = tested on: IL-6, IL-12p40, TNFα, MMP-9, sVCAM, P-selectin, E-selectin, MCP-1 and oxidised LDL; experiment: Other tertiary markers (IL-6, IL-12p40, TNFα, MMP-9, sVCAM, P-selectin, E-selectin, MCP-1, oxidised LDL), DG-031 crossover clinical trial; assay type: in vivo, human; conditions: DG-031 vs placebo
# Description: as §1, §5, §4, §6
# [8] = Safety and adverse events, DG-031 crossover clinical trial; assay type: in vivo, human
# Excerpt: All study participants lived in the Reykjavik metropolitan area or its neighboring townships. All study participants were followed by the designated cardiologists at the University Hospital of Iceland, at their outpatient or private clinics, and all subjects had participated in a study on the genetics of MI. After the subject had given informed consent, a medical and medication history was completed, including co-morbidities, concomitant medications and specific details about the subject's cardiovascular history, including current status. All study participants were fasting and had not taken their medications prior to the study visit. Cardiologists examined the patients at all 8 visits and completed the case report forms. All blood was collected and processed immediately after sampling. All blood specimens used for the biomarker studies were processed within 2 hours of blood sampling.
# as §2
# [9] = 750 mg/day dose; healthy volunteers and patients with asthma (Dahlen et al., Hamilton et al.); cited from earlier work
# [10] = differences between visit 2 and 5, 500 and 750 mg/day vs placebo
smiles,measurement,setting,value
"O=C(O)[C@@H](c1ccc(OCc2ccc3ccccc3n2)cc1)C1CCCC1 [DG-031, (R)-(+)-alpha-cyclopentyl-4-(2-quinolinylmethoxy)-Benzeneacetic acid]",maximum reduction in LTB4 production by ionomycin-activated neutrophils ex vivo,"[1]; 750 mg/day DG-031 vs placebo, 4-week treatment, MI patients carrying at-risk FLAP/LTA4 hydrolase haplotypes, nominal p=0.0026",26%
same,"carry-over effect from treatment phase to placebo phase, LTB4",[1]; [10],No carry over effects were observed
same,levels of LTB4 produced by ionomycin-activated neutrophils ex vivo (primary efficacy endpoint),"[1]; pooled set of 500 mg and 750 mg arms, nominal p=0.0042, significant after correction for multiple testing",reduces levels of LTB4
same,maximum reduction in MPO production (whole blood),"[2]; 750 mg/day DG-031 vs placebo, nominal p=0.023",13%
same,"carry-over effect from treatment phase to placebo phase, MPO",[2]; [10],No carry over effects were observed
same,increase in urine levels of LTE4,[3],27%
same,"carry-over / persistent effect after discontinuation, CRP","[4]; differences between visit 2 and 5, 500 and 750 mg/day vs placebo, p=0.017",evidence of a persistent effect; also recorded: marked carry over effects were observed; also recorded: seems to persists until visit 7
same,further CRP reduction in subjects already on statin therapy,"[4]; short term study, LT inhibitor added to statin therapy",20-30%
same,reduction of serum levels of CRP,[4]; summary of the clinical trial,approximately 25%
same,reduction of CRP,"[4]; visit 5 (after 2-week washout), two higher doses, p=0.017",about 25%
same,level of CRP during treatment,"[4]; visits 3 (2 weeks on therapy) and 4 (4 weeks on therapy), two higher doses","dropped at visits 3 and 4, but not significantly"
same,"carry-over / persistent effect after discontinuation, SAA","[5]; differences between visit 2 and 5, 500 and 750 mg/day vs placebo, p=0.051",evidence of a persistent effect
same,reduction of serum levels of SAA,[5]; summary of the clinical trial,approximately 25%
same,effect on Lp-PLA2,[6]; 2 lower doses (250 mg/day and 500 mg/day),not significant
same,increase in Lp-PLA2,"[6]; highest dose of DG-031 (750 mg/day), nominal p=0.0056",9%
same,effect on other tertiary markers,[7],no effects were observed
same,"dizziness, number of patients reporting","[8]; active drug (any dose) vs none on placebo, p=0.032",6 patients
same,liver transaminases,[8]; active drug vs placebo,no difference was detected
same,serious adverse events,[8]; between treatment groups or dose arms,no difference in serious adverse events
same,overall safety and tolerability,"[8]; clinical trial, 250-750 mg/day",safe and well tolerated
same,tolerability in previous phase I-III human studies,[9],well tolerated

# Source: patent publication US8158362B2, “Methods of diagnosing susceptibility to myocardial infarction and screening for an LTA4H haplotype” (deCODE Genetics ehf., priority 2005, dated 2012)
